The results in this text go back to patent publication US9777070B2, “Anti-PTK7 antibody-drug conjugates” (Pfizer Inc., priority 2014, dated 2017).

Assay [1] has as its system non-small cell lung cancer-176 (LU176) PDX. Briefly: In vivo efficacy, PDX tumor growth. The conditions noted are these: 5 mg/kg. More on the design: species or system human tumor in NOD/SCID mice. An excerpt:
(§1) The effects of anti-PTK7 antibody-drug conjugates were further evaluated on the in vivo growth of human tumor patient-derived xenografts (PDX). Primary tumor resection samples were procured from clinical sites following Institutional Review Board for the Protection of Human Subjects approval and in accordance with HIPAA regulations. Tumor fragments were stored and shipped in Hypothermasol (Biolife Solutions) on ice and were embedded in Matrigel (BD) containing a proprietary mix of growth factors and implanted subcutaneously into the mammary fatpad of female NOD/SCID mice within 24 hours of resection. Mice were monitored for health status daily and for tumor growth initially by visual inspection twice per week. Once the tumors were palpable, measurements of tumor volume began to track tumor growth and estimate cell doubling time. Tumor volume was estimated using the equation V=(A*B^2)/2 where A is the long axis and B is the short axis. When tumors reached a volume of 500 mm^3 to 1,500 mm^3, they were harvested for study and for re-transplant as a patient-derived xenograft (PDX). Depending on the line, mechanical and/or chemical dissociation can be used to separate the individual cells for passage. Live cells were inoculated into naïve animals with 10,000 to 50,000 cells per animals
(§2) For efficacy studies, tumors were harvested from passaging studies and cells were dissociated into single cell suspension. Preparations were counted for live cells using Trypan blue exclusion and 10,000 to 50,000 cells were inoculated per mouse in Matrigel. […] Tumor growth was initially followed by palpability with measurements beginning once tumor volumes reached about 30 mm^3. Studies were randomized based on tumor size once a cohort of tumor-bearing mice reached 140 mm^3 to 180 mm^3. Animals were dosed by intraperitoneal injection twice a week for two weeks (q4dx4). Study groups were followed until individual mice or entire group tumor measurements reached 1200 mm^3 when sacrifice was indicated in accordance with IACUC protocol. For selected dosing studies, pharmacokinetic submandibular bleeds were performed at 2 hours, 36 hours and 72 hours. A volume of 10 μL of blood was immediately pipetted into 90 μL of HBS-P (GE Healthcare). Samples were stored at −80° C. prior to analysis. For each tumor measurement the tumor volume±standard error of the mean (SEM) is provided. GT=Group Terminated due to large tumor size.
(§3) Animals were dosed every four days for four cycles (Q4Dx4) by intraperitoneal injection except the BR5 study which was by intravenous injection on the same schedule. Tumor measurements were recorded one or two times per week using digital calipers and tumor volume was estimated using the equation V=(A×B^2)/2 where A is the long axis and B is the short axis. Animal body weights were measured and recorded at least once a week. Study groups were followed until individual mice or entire group tumor measurements reached 1200 mm^3 at which point sacrifice was indicated in accordance with IACUC protocol. For the BR5 study, animals were sacrificed once tumor volume approached 15% of the body weight at staging in accordance with IACUC protocol.
(§4) Tumor growth inhibition (TGI) was calculated using the equation % TGI=[1−(mean tumor volume of treated)/(mean tumor volume of vehicle)]. TGI was calculated at the latest possible time point, which was typically the last measurement before the control group was discontinued as described above. Tumor regression was defined as a reduction in mean tumor volume after dosing. In cases where tumors regressed, Time To Progression (TTP) indicates the number of days between the first does and the time at which mean tumor volume increased from the previous measurement to a statistically significant degree.

In assay [2] the test system is non-small cell lung cancer-135 (LU135) PDX. The assay can be described thus: In vivo efficacy, PDX tumor growth. More on the design: species or system human tumor in NOD/SCID mice. The settings on record: 20 mg/kg.
Source text: as §1, §2, §3, §4

For assay [3], the system named is Breast-31 (BR31) TNBC PDX. The assay can be described thus: In vivo efficacy, PDX tumor growth. More on the design: species or system human tumor in NOD/SCID mice.
Source text: as §1, §2, §3
(§5) Tumor growth inhibition (TGI) was calculated using the equation % TGI=[1−(mean tumor volume of treated)/(mean tumor volume of vehicle)]. […] Tumor regression was defined as a reduction in mean tumor volume after dosing. In cases where tumors regressed, Time To Progression (TTP) indicates the number of days between the first does and the time at which mean tumor volume increased from the previous measurement to a statistically significant degree.

Assay [4] concerns Breast-22 (BR22) TNBC PDX. Briefly: In vivo efficacy, PDX tumor growth. More on the design: species or system human tumor in NOD/SCID mice.
Source text: as §1, §2, §3, §5

Assay [5] deals with Breast-13 (BR13) triple-negative breast cancer (TNBC) PDX. The assay can be described thus: In vivo efficacy, PDX tumor growth. The settings on record: 1 mg/kg. More on the design: species or system human tumor in NOD/SCID mice.
Source text: as §1, §2, §3, §4

Assay [6] deals with Breast-64 (BR64) TNBC PDX. The assay can be described thus: In vivo efficacy, PDX tumor growth. The settings on record: 20 mg/kg. More on the design: species or system human tumor in NOD/SCID mice.
Source text: as §1, §2, §3, §4

A further assay deals with BR13 TNBC breast tumors. Briefly: Tumor-initiating cell (TIC) frequency by limit dilution analysis after in vivo treatment. Details: species or system human tumor in mice. The conditions noted are these: for # Animals with tumors: 20 mpk. On the procedure:
To determine whether anti-PTK7 antibody-drug conjugate treatments reduced tumor-initiating cell (TIC) frequency in tumors, BR13 TNBC breast tumors were treated with 4 mg/kg hu24-vc0101 ADC, 4 mg/kg control IgG ADC, or 20 mg/kg docetaxel chemotherapy twice weekly for a total of 3 doses (Days 0, 3 & 7). Live, residual human tumor cells (i.e. hESA^+ mCD45^− mH-2Kd^−) were isolated from dissociated tumors at day 10 and re-implanted into naïve animals in a limit dilution analysis (LDA). Resulting tumor incidence was monitored for up to 40 weeks post-transplant. The day of tumor harvest (day 10) and serial transplantation was chosen based on when tumors were starting to regress following hu24-vc0101 exposure. Tumors were dissociated and stained with anti-human ESA, anti-mouse CD45, and anti-mouse H-2Kd antibodies. Three tumors per treatment group were pooled, and live human tumor cells were sorted by flow cytometry. Groups of 10 mice were injected with either 293, 73, 37 or 15 tumor cells sorted from control IgG ADC treated tumors; 159, 90, 40 or 10 tumor cells sorted from hu24-vc0101 treated tumors; or 257, 33 or 15 tumor cells sorted from docetaxel-treated tumors. Tumors in recipient mice were measured weekly and tumors that exceeded 200 mm^3 in recipient mice were scored as positive. Using Poisson distribution statistics, via L-Calc software (Stemcell Technologies, Vancouver, BC), injected cell doses of recipients with and without tumors by 40 weeks post-transplant were used to calculate the frequency of TIC after each treatment.

Take `N.N.[Cl][Pt][Cl]` [cisplatin, reference compound]: the “tumor volume ± SEM” value in assay [1] (Day 0) came to 259 ± 26 mm^3; in assay [1] (Day 7) it was 124 ± 30 mm^3; in assay [1] (Day 14), 97 ± 22 mm^3; in assay [1] (Day 21), 102 ± 24 mm^3; in assay [1] (Day 28), 179 ± 71 mm^3; in assay [1] (Day 35), 207 ± 69 mm^3. Also, the “tumor volume ± SEM” value is 297 ± 97 mm^3 in assay [1] (Day 42) and 619 ± 262 mm^3 in assay [1] (Day 49).

`CC(=O)O[C@H]1C(=O)[C@@]2(C)[C@H]([C@H](OC(=O)c3ccccc3)[C@]3(O)C[C@H](OC(=O)[C@H](O)[C@@H](NC(=O)c4ccccc4)c4ccccc4)C(C)=C1C3(C)C)[C@]1(OC(C)=O)CO[C@@H]1C[C@@H]2O` [paclitaxel, reference compound]: the “tumor volume ± SEM” value was 175 ± 24 mm^3 in assay [2] (Day 0); 77 ± 13 mm^3 in assay [2] (Day 7); 58 ± 12 mm^3 in assay [2] (Day 14); 60 ± 11 mm^3 in assay [2] (Day 21); 93 ± 20 mm^3 in assay [2] (Day 28); 110 ± 31 mm^3 in assay [2] (Day 35). Moreover, the “tumor volume ± SEM” value in assay [2] (Day 42) is recorded as 184 ± 48 mm^3; in assay [2] (Day 49) it was 284 ± 78 mm^3; in assay [2] (Day 56) it was 384 ± 106 mm^3; in assay [2] (Day 63), 538 ± 178 mm^3; in assay [2] (Day 70) it was 667 ± 174 mm^3; in assay [2] (Day 77), 724 ± 171 mm^3.

`COc1cccc2c1C(=O)c1c(O)c3c(c(O)c1C2=O)C[C@@](O)(C(=O)CO)C[C@@H]3O[C@H]1C[C@H](N)[C@H](O)[C@H](C)O1` [Doxorubicin, doxorubicin, reference compound]: the “tumor volume ± SEM” value in assay [3] (1.5 mg/kg, Day 0) is 160 ± 11 mm^3; in assay [3] (1.5 mg/kg, Day 7), 304 ± 20 mm^3; in assay [3] (1.5 mg/kg, Day 28) it was 759 ± 111 mm^3; in assay [4] (Day 0, 1.5 mg/kg), 297 ± 17 mm^3; in assay [4] (Day 14, 1.5 mg/kg), 641 ± 39 mm^3; in assay [5] (Day 0) it was 156 ± 13 mm^3. Moreover, the “tumor volume ± SEM” value turned out to be 219 ± 29 mm^3 in assay [5] (Day 7); 295 ± 39 mm^3 in assay [5] (Day 14); 353 ± 45 mm^3 in assay [5] (Day 21); 432 ± 50 mm^3 in assay [5] (Day 28); 696 ± 84 mm^3 in assay [5] (Day 35); 1001 ± 159 mm^3 in assay [5] (Day 42).

In the case of `CC(=O)O[C@@]12CO[C@@H]1C[C@H](O)[C@@]1(C)C(=O)[C@H](O)C3=C(C)[C@@H](OC(=O)[C@H](O)[C@@H](NC(=O)OC(C)(C)C)c4ccccc4)C[C@@](O)([C@@H](OC(=O)c4ccccc4)[C@H]21)C3(C)C` [docetaxel, reference compound], the “tumor volume ± SEM” value is given as 259 ± 47 mm^3 in assay [3] (20 mg/kg, Day 0); 331 ± 70 mm^3 in assay [3] (20 mg/kg, Day 7); 371 ± 82 mm^3 in assay [3] (20 mg/kg, Day 14); 451 ± 91 mm^3 in assay [3] (20 mg/kg, Day 21); 510 ± 103 mm^3 in assay [3] (20 mg/kg, Day 28); 614 ± 117 mm^3 in assay [3] (20 mg/kg, Day 35). For the same compound, the “tumor volume ± SEM” value in assay [3] (20 mg/kg, Day 42) was 790 ± 117 mm^3; in assay [3] (20 mg/kg, Day 49), 837 ± 126 mm^3; in assay [3] (20 mg/kg, Day 63), 1131 ± 148 mm^3; in assay [3] (20 mg/kg, Day 70), 1317 ± 182 mm^3; in assay [4] (20 mg/kg, Day 0), 182 ± 21 mm^3; in assay [4] (20 mg/kg, Day 7), 154 ± 23 mm^3. Moreover, the “tumor volume ± SEM” value in assay [4] (20 mg/kg, Day 14) came out at 107 ± 51 mm^3; in assay [4] (20 mg/kg, Day 21), 218 ± 98 mm^3; in assay [4] (20 mg/kg, Day 28) it was 418 ± 165 mm^3; in assay [4] (20 mg/kg, Day 35), 1191 ± 264 mm^3; in assay [6] (Day 0), 543 ± 46 mm^3; in assay [6] (Day 7), 1112 ± 97 mm^3. Moreover, the “tumor volume ± SEM” value in assay [6] (Day 14) stood at 1805 ± 206 mm^3. In the assay on BR13 TNBC breast tumors (BR13, 20 mg/kg, Days 0, 3 & 7, tumors harvested day 10, p=0.09), the “TIC frequency, fold lower than in control IgG ADC treated tumors” value was determined as 2.1 fold. Further, the “# Animals with tumors” value in the assay on BR13 TNBC breast tumors (Group C1, 257 cells implanted per animal, 9 animals in group) was 8; in the assay on BR13 TNBC breast tumors (Group C2, 33 cells implanted per animal, 8 animals in group), 1; in the assay on BR13 TNBC breast tumors (Group C3, 15 cells implanted per animal, 6 animals in group), 0.
